In paper PMC11859264, “Discovery of a Novel Multitarget Analgesic Through an In Vivo-Guided Approach” (Pharmaceuticals, 2025):

Experiments:
[1] = target: CYP2C19 (Homo sapiens, UniProt P33261); assay: in vitro; details: microsomes, pH 7.4, CYP2C19 % of inhibition
[2] = target: CYP3A4 (Homo sapiens, UniProt P08684); assay: in vitro; details: microsomes, pH 7.4
[3] = system: formalin model; assay: Formalin test in mice (primary in vivo screening and ED50); design: species or system ICR male mice
Description: For primary screening, the synthesized compounds were administered to mice via intraperitoneal injection at a dose of 5 mg/kg using the formalin model. The percentage inhibition in the second phase, relative to the vehicle control (DMSO/cremophor EL/distilled water = 10:10:80), was calculated.
Each compound was assessed using four doses (0.1, 1, 5, and 10 mg/kg) by intraperitoneal injection.
ICR male mice weighing 23–25 g was purchased from Samtako Korea (Osan, Republic of Korea). ICR mice were housed four per cage in a room with 12 h light–dark cycles. The temperature and relative humidity of the room were maintained at 22 ± 2 °C and 50 ± 5%, respectively. Food and water were available ad libitum. The procedures for animal testing were approved by Medifron Animal Care and Use Committees (Approval number; Medifron 2019-9). Efforts were made to minimize animal suffering and to reduce the number of animals used.
Mice were randomly assigned to five groups (four per group) and single-dose drugs were administered by intraperitoneal injection. The formalin-induced licking paw test was modified from the method described by Dubuisson and Dennis. Each mouse was acclimated to an acrylic observation chamber for at least 30 min before the injection of formalin. Twenty microliters of 2% formalin were injected subcutaneously into the right side of the hind paw. Each mouse was then placed in an individual clear plastic observational chamber (15 × 15 × 15 cm, volume = […] or 3.375 L), and the pain response was recorded for a period of 30 min. The summation of time (in seconds) spent in licking and biting responses of the injected paw during each 5 min block was measured as an indicator of the pain response. The first period (early phase) was recorded 0–5 min after the injection of formalin, and the second period (late phase) was recorded 20–30 min after the injection. The test compound was administered intraperitoneally 30 min before the formalin injection at […]: 0.1, 1, 5, and 10 mg/kg. The vehicle was DMSO/Cremophor EL/distilled water (10/10/80). The data were expressed as the mean ± standard error of the mean (SEM). Statistical analysis was assessed by one-way analysis of variance (ANOVA) with Bonferroni’s post hoc test. Statistical significance was set at p-value < 0.05, with values of p <0.001 considered highly significant.

[4] = target: T1, Adrenergic α2A (Homo sapiens, UniProt P08913); assay: Radioligand binding, [3H] Rauwolscine, Eurofins
T1 sequence (P08913 1-465): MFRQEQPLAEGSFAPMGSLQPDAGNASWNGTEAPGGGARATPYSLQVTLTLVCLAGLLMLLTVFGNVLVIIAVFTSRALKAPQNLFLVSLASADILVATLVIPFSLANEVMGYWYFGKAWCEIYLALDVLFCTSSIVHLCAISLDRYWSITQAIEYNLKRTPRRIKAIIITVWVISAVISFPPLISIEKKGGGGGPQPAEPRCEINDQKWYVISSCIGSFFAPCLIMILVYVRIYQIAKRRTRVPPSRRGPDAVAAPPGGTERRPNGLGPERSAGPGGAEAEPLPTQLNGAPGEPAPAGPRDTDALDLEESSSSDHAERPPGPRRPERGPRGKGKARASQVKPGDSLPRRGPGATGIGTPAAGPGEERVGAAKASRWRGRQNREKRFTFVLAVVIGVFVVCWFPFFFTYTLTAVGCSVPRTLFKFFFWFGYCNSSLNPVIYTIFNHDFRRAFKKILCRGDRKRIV

[5] = target: hERG (Homo sapiens, UniProt Q12809); assay: biochemical
Chain of hERG (Q12809 whole entry): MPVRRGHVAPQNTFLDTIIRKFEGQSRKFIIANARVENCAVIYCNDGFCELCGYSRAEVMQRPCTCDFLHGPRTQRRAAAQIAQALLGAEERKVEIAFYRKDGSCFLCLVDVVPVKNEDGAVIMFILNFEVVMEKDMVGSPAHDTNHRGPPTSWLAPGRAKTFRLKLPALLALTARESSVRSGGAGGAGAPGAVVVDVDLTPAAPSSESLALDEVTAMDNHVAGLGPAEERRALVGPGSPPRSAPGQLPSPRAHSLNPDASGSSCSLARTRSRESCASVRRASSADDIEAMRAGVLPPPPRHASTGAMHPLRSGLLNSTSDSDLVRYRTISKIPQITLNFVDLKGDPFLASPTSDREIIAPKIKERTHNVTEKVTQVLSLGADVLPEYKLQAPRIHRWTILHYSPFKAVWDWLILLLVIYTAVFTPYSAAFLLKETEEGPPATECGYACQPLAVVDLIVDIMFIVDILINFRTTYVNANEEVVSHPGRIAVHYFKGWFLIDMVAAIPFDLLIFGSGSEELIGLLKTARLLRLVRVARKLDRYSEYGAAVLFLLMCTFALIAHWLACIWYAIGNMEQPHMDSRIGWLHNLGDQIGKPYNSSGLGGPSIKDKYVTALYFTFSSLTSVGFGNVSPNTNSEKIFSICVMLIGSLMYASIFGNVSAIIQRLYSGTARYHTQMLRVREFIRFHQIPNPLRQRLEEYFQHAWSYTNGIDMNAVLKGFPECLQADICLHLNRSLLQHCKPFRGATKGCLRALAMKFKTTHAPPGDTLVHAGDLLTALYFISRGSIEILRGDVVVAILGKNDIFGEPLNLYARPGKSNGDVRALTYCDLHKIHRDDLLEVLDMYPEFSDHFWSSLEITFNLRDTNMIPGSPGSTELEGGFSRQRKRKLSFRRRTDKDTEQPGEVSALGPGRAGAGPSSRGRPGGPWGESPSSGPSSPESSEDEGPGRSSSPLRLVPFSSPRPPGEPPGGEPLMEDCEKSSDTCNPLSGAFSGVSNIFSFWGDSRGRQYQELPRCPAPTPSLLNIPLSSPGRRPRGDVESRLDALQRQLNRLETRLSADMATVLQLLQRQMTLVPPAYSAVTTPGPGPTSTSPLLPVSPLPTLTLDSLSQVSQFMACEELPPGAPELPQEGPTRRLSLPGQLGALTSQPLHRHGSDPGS

Chain of CYP3A4 (P08684 whole entry): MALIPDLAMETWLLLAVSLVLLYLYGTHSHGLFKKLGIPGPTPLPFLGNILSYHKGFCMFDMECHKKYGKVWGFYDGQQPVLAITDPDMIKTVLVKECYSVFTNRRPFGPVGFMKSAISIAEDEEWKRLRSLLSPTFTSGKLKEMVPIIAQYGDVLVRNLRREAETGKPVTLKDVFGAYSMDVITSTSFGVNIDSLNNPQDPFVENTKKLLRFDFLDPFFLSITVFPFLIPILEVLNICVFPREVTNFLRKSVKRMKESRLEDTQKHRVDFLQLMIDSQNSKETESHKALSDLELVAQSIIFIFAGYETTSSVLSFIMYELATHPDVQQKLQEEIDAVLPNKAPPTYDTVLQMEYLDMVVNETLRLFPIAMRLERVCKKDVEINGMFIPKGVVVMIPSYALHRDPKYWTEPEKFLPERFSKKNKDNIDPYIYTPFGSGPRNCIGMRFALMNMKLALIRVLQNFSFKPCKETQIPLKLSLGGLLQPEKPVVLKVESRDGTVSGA
Chain of CYP2C19 (P33261 whole entry): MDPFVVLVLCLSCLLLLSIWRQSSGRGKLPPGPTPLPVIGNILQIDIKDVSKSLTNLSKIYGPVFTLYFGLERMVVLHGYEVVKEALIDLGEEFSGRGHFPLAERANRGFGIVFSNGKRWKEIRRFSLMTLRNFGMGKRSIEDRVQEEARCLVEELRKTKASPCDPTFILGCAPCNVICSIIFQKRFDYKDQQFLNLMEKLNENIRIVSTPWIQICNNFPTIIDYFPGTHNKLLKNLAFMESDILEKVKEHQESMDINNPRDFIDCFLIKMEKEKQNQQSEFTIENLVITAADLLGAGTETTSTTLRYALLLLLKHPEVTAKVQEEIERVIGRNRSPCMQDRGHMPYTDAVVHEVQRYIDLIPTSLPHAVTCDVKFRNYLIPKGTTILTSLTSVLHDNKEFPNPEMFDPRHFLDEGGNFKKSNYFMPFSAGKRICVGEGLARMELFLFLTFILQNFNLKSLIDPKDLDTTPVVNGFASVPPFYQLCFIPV

N#Cc1ccc2[nH]cc(C(=O)NCCN3CCN(c4ccc5ccccc5n4)CC3)c2c1 [Compound 29, 5-Cyano-N-(2-(4-(quinolin-2-yl)piperazin-1-yl)ethyl)-1H-indole-3-carboxamide]
inhibition at 15 min, 10 µM [1]: < 50%
inhibition at 15 min, 10 µM [2]: 78%
ED50 ([3]; Mus musculus, ip, read-out: ED50 in the second phase of the formalin model): 0.78 mg/kg
activity in the first phase of the formalin model ([3]; mice, intraperitoneal, first phase): relatively weak
nH (Hill coefficient) ([4]; Adrenergic α2A): 1.02
Ki ([4]; Adrenergic α2A, Cheng and Prusoff): 4.11 µM
IC50 ([4]; Adrenergic α2A, human recombinant CHO-Ki cells): 8.22 µM
times the activity of reference compound yohimbine ([4]; ratio of Ki values): 0.25
IC50 [5]: ~10 µM
